Measured values from patent US20050203172A1, “Novel compounds” (priority 2002, published 2005).
Where a name gives a salt, the structure may show the parent alone.

Tested on: human form of induced nitric oxide synthase in DLD-1 cells
Test: Screen 3: nitrite accumulation (Griess) in cytokine-induced DLD-1 cells
Type: cell-based
Settings: DLD-1 cells induced with gamma-IFN, TNF-alpha, IL-6, IL-1-beta, 5 hours with compound, read-out: IC50 (inhibition of nitrite accumulation)
Experimental: The human colorectal carcinoma cell line, DLD-1 (obtained from the European Collection of Animal Cell Culture—cell line number 90102540) was routinely grown in RPMI 1640 supplemented with 10% (v/v) foetal bovine serum, and 2 mM L-glutamine, at 37° C. in 5% CO2. Nitric oxide synthase was induced in cells by addition of medium containing human recombinant gamma-IFN (1000 units/ml), TNF-alpha (200 U/ml), IL-6 (200 U/ml) and IL-1-beta (250 U/ml). After incubation for 18 hours at 37° C., the medium was removed and the cells washed with warm phosphate buffered saline. Cells were incubated for a further 5 hours at 37° C./5% CO2 in RPMI 1640 containing 100 μM L-arginine and 100 μM verapamil-HCl in the presence and absence of test compounds. Nitrite accumulation was determined by mixing an equal volume of culture media with Griess reagent (10 mg/ml sulphanilamide, 1 mg N-(1-naphthyl)ethylenediamine in 1 ml 2.5% (v/v) phosphoric acid). Inhibition in the presence of compounds was calculated relative to the nitrite levels produced by untreated cells. IC50 values were estimated from a semi-log plot of % inhibition versus concentration of compound.

| IC50 [µM] | Structure (SMILES) |
| --- | --- |
| < 100 | N#Cc1sccc1S[C@H](C[C@H](N)CO)c1ccccc1 [Example 1, 3-[[(1R,3S)-3-Amino-4-hydroxy-1-phenylbutyl]thio]-2-thiophenecarbonitrile oxalate] |
| < 100 | Cc1cc(S[C@H](C[C@H](N)CO)c2ccccc2)c(C#N)s1 [Example 2, 3-[[(1R,3S)-3-Amino-4-hydroxy-1-phenylbutyl]thio]-5-methyl-2-thiophenecarbonitrile Oxalate] |
